Laboratory results reported in patent US8492329B2, “Bioactive peptides and methods of using same” (Compugen Ltd., priority 2007, dated 2013).
“Also recorded” adds a separate entry of the source. No end group written: not given here.

Columns and labels:
LGR5 = biological target: T1, LGR5 (Homo sapiens, UniProt O75473); experiment: cAMP accumulation in CHO-K1 cells transiently transfected with LGR5; type: cell-based; conditions: 1 uM, pre-treatment with Forskolin, FIG. 3B
T1 construct: expressed in transfected cells; host or cells: CHO-K1 (transient)
T1 sequence (O75473 22-907): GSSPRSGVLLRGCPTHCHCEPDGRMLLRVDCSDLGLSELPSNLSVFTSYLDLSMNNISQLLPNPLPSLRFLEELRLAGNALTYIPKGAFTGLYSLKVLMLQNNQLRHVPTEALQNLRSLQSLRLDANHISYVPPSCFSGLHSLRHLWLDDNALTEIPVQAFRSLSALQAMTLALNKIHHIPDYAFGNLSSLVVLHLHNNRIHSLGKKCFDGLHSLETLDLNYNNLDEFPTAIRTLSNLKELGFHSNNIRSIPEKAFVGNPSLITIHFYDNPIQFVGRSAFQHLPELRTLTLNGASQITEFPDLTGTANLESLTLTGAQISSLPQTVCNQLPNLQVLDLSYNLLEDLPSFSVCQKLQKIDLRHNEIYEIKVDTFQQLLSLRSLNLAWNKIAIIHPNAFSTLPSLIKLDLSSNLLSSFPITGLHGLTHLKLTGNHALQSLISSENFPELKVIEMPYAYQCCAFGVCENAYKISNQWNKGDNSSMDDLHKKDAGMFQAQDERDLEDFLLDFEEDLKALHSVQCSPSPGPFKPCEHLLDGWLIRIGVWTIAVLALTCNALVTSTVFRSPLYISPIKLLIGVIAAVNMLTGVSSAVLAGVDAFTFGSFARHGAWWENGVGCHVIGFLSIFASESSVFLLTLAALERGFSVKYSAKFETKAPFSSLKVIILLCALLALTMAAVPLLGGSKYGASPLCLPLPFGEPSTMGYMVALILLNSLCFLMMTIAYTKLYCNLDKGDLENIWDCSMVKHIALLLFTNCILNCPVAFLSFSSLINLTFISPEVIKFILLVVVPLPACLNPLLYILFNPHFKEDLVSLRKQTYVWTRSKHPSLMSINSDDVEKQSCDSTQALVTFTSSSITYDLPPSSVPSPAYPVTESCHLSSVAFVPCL
Procedure: [The procedure below names another target; the source says it served here with some conditions changed.] LGR7 (RXFP1) or LGR8 (RXFP2) were transiently transfected into CHO-K1 cells as follows: Cells (12 million) were plated into T75 flasks on the day preceding transfection. Cells were transfected with a GPCR DNA and Gα16 using a lipid technique according to the manufacturer's recommendation. Cells were transfected for 5 hours, then re-plated into 96-well dishes (60,000 cells per well) and grown overnight. Transfected cells were plated into 24 wells of a 96-well plate. Cells were pre-treated with 0.5 mM IBMX (stimulation buffer) for 10 min at 37° C., then stimulated with either a positive control (Relaxin 2) or a candidate peptide (for Gs functional examination), followed by stimulation or a preincubation with 10 μM forskolin (for Gi functional examination). Following a 20 minutes stimulation by incubation with 1 μM of either positive control or the tested peptides, either with or without forskolin, intracellular cAMP was assayed using the Hit Hunter cAMP kit (DiscoveRx Corporation) according to the manufacturer's recommended protocol. Data was converted to nmol of cAMP by running a standard cAMP curve.

[1] = tested on: untransfected CHO-K1 cells; experiment: ACEA RT-CES cell impedance, untransfected CHO-K1 cells; type: cell-based; conditions: for effect on cell impedance (normalized cell index): P74C13V 10 uM, H2 Relaxin 1 uM, FIG. 11; for dose response activation (cell impedance): data not shown
Source text: ACEA RT-CES screen is a noninvasive and label-free assay for GPCRs that can be used with both engineered and nonengineered cell lines. The assay is based on using cell-electrode impedance to measure minute changes in cellular morphology as a result of ligand-dependent GPCR activation and is described in Naichen Yu, et al., Anal. Chem., 78 (1), 35-43, 2006. 10.1021/ac051695v S0003-2700(05)01695-1. The Rho family of small GTPases, which include Rho, Rac, and CDC42, are well-characterized effectors of oncogenes, growth factor and adhesion-mediated signaling pathways and are not classically thought of as being key effectors for GPCRs. Rho family GTPases participate in a number of cellular processes, the main one being regulation and maintenance of specific structures within the actin cytoskeleton framework. […] The current view of the actin cytoskeleton is that of a dynamic and plastic system that is a reflection and manifestation of the intracellular signaling and not simply a static structure designed to maintain cellular architecture. Since GPCRs couple to the actin cytoskeletal network and induce very defined morphological changes, it is possible to harness this information as a functional and biologically relevant readout for GPCRs.
ACEA biosciences; has designed electronic cell sensor arrays embedded in the bottom of the well of microtiter plates that are capable of measuring minute changes in cell morphology. The electronic sensors measure changes in cell-substrate impedance as a result of the disruption of the ionic environment due to the presence of cell and cell morphology dynamics. The main advantages offered by using cell-substrate impedance and cell morphology as a readout are that both exogenously expressed and endogenous receptors can be assayed without the need for engineering the cell with promiscuous G proteins and reporters or labeling the cells with dyes. In addition, since the readout is noninvasive, multiple stimulations with the same ligand or different ligands can be performed to assess events such as desensitization and receptor cross-talk. Finally, another major aspect of using cell-substrate impedance and cell morphology as a readout is that potentially all GPCRs, regardless of the signaling pathways, can be functionally monitored.
Peptides were synthesized by the solid phase peptide synthesis (SPPS) method, cleaved from the resin, and purified by RP-HPLC unless stated otherwise. […] Final purity of peptide was >90% as measured by RP-HPLC. […]
Before the transfected cells were seeded, […] SFM F12-HAM medium were added to each well of the E-plates and background levels were recorded.
Total cell number was calculated and cells were re-suspended in complete growth medium to cell concentration ranging from 0.3125×10^6/mL up to 0.4375×10^6/mL. […]

Row | Substance | Gi effect (decrease in cAMP accumulation) (LGR5) | effect on cell impedance (normalized cell index) [1] | dose response activation (cell impedance) [1]
1 | GQKGQVGPPGAAVRRAYAAFSVGRRAYAAFSV-OH [Peptide P74C13V] | significant Gi effect; also recorded: slight Gi activation | moderate effect | no dose dependent activation but only a moderate activation of the highest concentrations
2 | H2 Relaxin: H2 Relaxin (ACS), positive control, known ligand of LGR7 (RXFP1) [reference compound] | – | moderate effect | no dose dependent activation but only a moderate activation of the highest concentrations
3 | GQKGQVGPPGAAVRRAYAAFSV [Peptide P59C13V] | significant Gi effect; also recorded: slight Gi activation | – | –
